Columns and labels:
[1] = biological target: Sodium-dependent serotonin transporter (Rattus norvegicus, UniProt P31652); assay: Binding affinity at serotonin transporter in rat striatum by [3H]citalopram displacement.; assay type: tissue-based
[2] = biological target: Sodium-dependent dopamine transporter (Rattus norvegicus, UniProt P23977); assay: biochemical; assay type: tissue-based, Striatum
Description: Binding affinity at the dopamine transporter in rast striatum by [3H]WIN-35428 displacement.

[3] = biological target: Norepinephrine transporter (Rattus norvegicus, UniProt Q9WTR4); assay: Binding affinity at the norepinephrine transporter in rat striatum by [3H]nisoxetine displacement.; assay type: tissue-based
[4] = Ratio of [3H]- DA uptake to DAT binding was determined; assay type: functional
[5] = species: Rattus norvegicus; assay: Inhibition of DAT uptake was determined by measuring the [3H]DA accumulation in rat striatal synaptosomes; assay type: functional; details: Brain

Sodium-dependent dopamine transporter, sequence (P23977 whole entry): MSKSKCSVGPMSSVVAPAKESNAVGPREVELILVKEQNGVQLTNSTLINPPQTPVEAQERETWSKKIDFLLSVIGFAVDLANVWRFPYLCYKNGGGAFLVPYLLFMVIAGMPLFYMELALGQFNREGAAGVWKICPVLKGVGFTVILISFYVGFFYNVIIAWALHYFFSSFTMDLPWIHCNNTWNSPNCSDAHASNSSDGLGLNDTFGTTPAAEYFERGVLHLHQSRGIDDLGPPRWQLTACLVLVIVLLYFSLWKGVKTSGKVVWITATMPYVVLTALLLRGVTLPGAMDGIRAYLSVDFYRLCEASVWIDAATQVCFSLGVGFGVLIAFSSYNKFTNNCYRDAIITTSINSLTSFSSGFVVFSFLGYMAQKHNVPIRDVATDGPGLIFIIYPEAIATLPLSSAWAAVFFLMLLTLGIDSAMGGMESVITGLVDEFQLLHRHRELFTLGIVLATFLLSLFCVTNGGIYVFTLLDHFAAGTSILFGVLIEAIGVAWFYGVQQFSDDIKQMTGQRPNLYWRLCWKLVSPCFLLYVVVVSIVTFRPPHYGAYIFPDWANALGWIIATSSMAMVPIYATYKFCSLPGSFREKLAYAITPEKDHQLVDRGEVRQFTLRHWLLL
Sodium-dependent serotonin transporter, sequence (P31652 whole entry): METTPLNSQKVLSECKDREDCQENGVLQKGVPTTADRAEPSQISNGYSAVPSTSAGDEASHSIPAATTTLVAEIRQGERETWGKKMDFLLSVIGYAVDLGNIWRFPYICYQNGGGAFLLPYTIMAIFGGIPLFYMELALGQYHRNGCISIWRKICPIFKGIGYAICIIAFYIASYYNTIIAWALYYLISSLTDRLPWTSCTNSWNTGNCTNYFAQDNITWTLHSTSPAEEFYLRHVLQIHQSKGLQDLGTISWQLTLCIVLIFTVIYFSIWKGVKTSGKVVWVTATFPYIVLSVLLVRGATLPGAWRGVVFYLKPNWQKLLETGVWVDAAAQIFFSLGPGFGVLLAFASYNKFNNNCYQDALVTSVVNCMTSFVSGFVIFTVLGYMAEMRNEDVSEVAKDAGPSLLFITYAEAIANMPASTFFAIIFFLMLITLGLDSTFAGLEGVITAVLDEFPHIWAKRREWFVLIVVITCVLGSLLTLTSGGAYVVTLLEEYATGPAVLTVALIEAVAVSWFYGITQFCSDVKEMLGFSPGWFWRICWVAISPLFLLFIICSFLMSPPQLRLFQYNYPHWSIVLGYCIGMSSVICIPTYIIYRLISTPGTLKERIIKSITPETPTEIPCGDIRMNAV
Norepinephrine transporter, sequence (Q9WTR4 whole entry): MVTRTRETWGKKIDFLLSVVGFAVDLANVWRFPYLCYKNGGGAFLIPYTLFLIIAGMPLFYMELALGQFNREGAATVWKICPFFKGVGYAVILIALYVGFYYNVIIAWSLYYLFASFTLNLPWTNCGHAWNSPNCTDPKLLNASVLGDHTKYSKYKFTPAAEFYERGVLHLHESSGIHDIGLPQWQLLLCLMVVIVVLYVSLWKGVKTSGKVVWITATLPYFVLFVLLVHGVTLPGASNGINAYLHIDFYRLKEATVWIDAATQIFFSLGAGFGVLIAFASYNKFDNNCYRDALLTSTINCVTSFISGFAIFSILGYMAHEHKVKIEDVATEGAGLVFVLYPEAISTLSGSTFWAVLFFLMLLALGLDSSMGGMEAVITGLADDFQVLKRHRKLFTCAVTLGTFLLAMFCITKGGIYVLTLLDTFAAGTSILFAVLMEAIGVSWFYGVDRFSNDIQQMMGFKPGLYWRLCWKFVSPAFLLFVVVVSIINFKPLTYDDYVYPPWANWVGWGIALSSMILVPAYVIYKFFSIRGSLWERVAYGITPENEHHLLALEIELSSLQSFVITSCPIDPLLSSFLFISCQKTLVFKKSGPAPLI

| SMILES | IC50 [1] | IC50 [2] | IC50 [3] | Selectivity ratio [4] | IC50 [5] |
| --- | --- | --- | --- | --- | --- |
| Fc1ccc(CCNC2CCC(C(c3ccccc3)c3ccccc3)NC2)cc1 (stereo not given) | 2190 nM | 173 nM | 1740 nM |  |  |
| Fc1ccc(CN[C@@H]2CC[C@H](C(c3ccccc3)c3ccccc3)NC2)cc1 | 3540 nM | 229 nM | 2290 nM | 0.62 | 142 nM |
| COc1ccc(CN[C@@H]2CC[C@H](C(c3ccccc3)c3ccccc3)NC2)cc1 | 1040 nM | 47.5 nM | 1110 nM | 0.85 | 40.5 nM |
| Oc1ccc(CN[C@@H]2CC[C@H](C(c3ccccc3)c3ccccc3)NC2)cc1 | 862 nM | 65.9 nM | 201 nM |  |  |
| Fc1ccc(CN[C@@H]2CC[C@H](C(c3ccccc3)c3ccccc3)NC2)cc1F | 2250 nM | 63.5 nM | 1590 nM | 1.2 | 77 nM |
| Fc1ccc(CN[C@H]2CC[C@@H](C(c3ccccc3)c3ccccc3)NC2)cc1 | 1330 nM | 33.8 nM | 1420 nM | 1.6 | 53.8 nM |
| N#Cc1ccc(CN[C@@H]2CC[C@H](C(c3ccccc3)c3ccccc3)NC2)cc1 | 1550 nM | 109 nM | 16600 nM | 1.4 | 152 nM |
| c1ccc(C(c2ccccc2)[C@H]2CC[C@@H](NCc3cccs3)CN2)cc1 | 3650 nM | 267 nM | 4730 nM |  |  |
| c1ccc(C(c2ccccc2)[C@H]2CC[C@@H](NCc3c[nH]c4ccccc34)CN2)cc1 | 3010 nM | 834 nM | 3790 nM |  |  |
| Fc1ccc(CN2CCC(CNCC(c3ccccc3)c3ccccc3)CC2)cc1 |  |  |  | 2.5 |  |
| c1ccc(CN[C@@H]2CC[C@H](C(c3ccccc3)c3ccccc3)NC2)cc1 | 2130 nM | 114 nM | 612 nM |  |  |
| c1ccc(C(c2ccccc2)[C@H]2CC[C@@H](NCc3csc4ccccc34)CN2)cc1 | 2770 nM | 515 nM | 1050 nM |  |  |
| c1ccc(C(c2ccccc2)[C@H]2CC[C@@H](NCc3cc4ccccc4[nH]3)CN2)cc1 | 1800 nM | 95.4 nM | 1010 nM | 0.53 | 51 nM |
| Fc1ccc(CNC2CCC(C(c3ccccc3)c3ccccc3)NC2)cc1 (racemic) |  |  |  | 1.4 |  |
| N#Cc1ccc(CN[C@H]2CC[C@@H](C(c3ccccc3)c3ccccc3)NC2)cc1 | 434 nM | 11.3 nM | 1670 nM | 0.8 | 9.1 nM |

— ChEMBL document CHEMBL1144997, “Interaction of cis-(6-benzhydrylpiperidin-3-yl)benzylamine analogues with monoamine transporters: structure-activity relationship study of structurally constrained 3,6-disubstituted piperidine analogues of (2,2-diphenylethyl)-[1-(4-fluorobenzyl)piperidin-4-ylmethyl]amine” (J Med Chem, 2003)
